Measurements taken from article PMC11409709, “Inhibition of DRP-1 mitochondrial mitophagy and fission by novel α-aminophosphonates bearing pyridine: synthesis, biological evaluations, and computer-aided design” (BMC Chemistry, 2024).
Entries after “also recorded” stand apart in the source; their conditions may differ. Like-named read-outs stand apart in the source and are kept apart here.

Columns and labels:
ABTS radical scavenging = conditions: for IC50: 30 min dark, 734 nm
Procedure: (§1) With slight modifications, the DPPH and ABTS methods were used to test the new phosphonate’s free radical scavenging activity. Briefly, one milliliter of a 0.1 mM DPPH in methanol solution and ABTS in distilled water were added to the newly synthesized compounds. For 30 min, the mixture was left in the dark. The synthetic compounds’ ability to scavenge free radicals was compared to that of L. Ascorbic acid. At 517 nm for DPPH and 734 nm for ABTS, optical density was recorded, and the concentration inhibition was computed.
(§2) The percentage of inhibition is equal to [(A control − A test)/A control] × 100, where A control represents the control absorbance and A test represents the test sample absorbance. It was established what sample concentration (IC50) produced 50% inhibition. Every experiment was conducted in triplicate, and the mean ± SE IC50 values were reported.

[1] = system: bacterial and fungal strains; test: Disc diffusion, whole panel (result in words); assay type: cell-based; conditions: 1 mg/mL
Procedure: (§3) The produced compounds’ antimicrobial activity was evaluated using a panel of two gram-positive bacteria (Bacillus subtilis (#MTCC NO 441) and Staphylococcus aureus (#MTCC NO 96). as well as two Gram-negative bacteria (Pseudomonas aeruginosa (#MTCC NO 1688), Escherichia coli(#MTCC NO 452)). Two fungi [Candida albicans(#MTCC NO 183) and Aspergillus flavus(#MTCC NO 1344)] were used to assess the compounds' anti-fungal properties. Paper discs of Whatman filter paper with a standard size of […] were made, dissolved in DMSO, and then sterilized in an autoclave. A solution of 1 mg/mL was prepared for each drug separately. Paper discs soaked in the desired concentration of the complex solution were aseptically placed in Petri dishes containing nutrient agar media (20 g + 3 g of beef extract + 5 g of peptone) seeded with bacterial and fungal strains. After 24 h of incubation at 36 °C, the inhibitory zones in the petri dishes were measured. There were three copies of every treatment. Using the same protocol as previously described, the antifungal Clotrimazole and the common standard antibiotic Ciprofloxacin were also tested for antibacterial activity at the same concentrations and solvent combinations.

DPPH radical scavenging = conditions: for IC50: 0.1 mM DPPH in methanol, 30 min dark, 517 nm
Procedure: as §1, §2

[2] = system: colorectal adenocarcinoma (Caco-2); test: MTT assay, Caco-2; assay type: cell-based, human; conditions: for IC50: Homo sapiens, Caco-2, 48 h, read-out: Anti-cancer activity CaCo-2 (IC50), MTT, 48 h; for antitumor impact on Caco-2: MTT, 48 h, compared with DOX
Excerpt: (§4) Mammary gland (MCF-7;# ATCC HTB-22), colorectal adenocarcinoma (Caco-2; # ATCC HTB-37), hepatocellular carcinoma (HepG-2; #ATCC HB-8065), and human lung fibroblast (WI-38; # ATCC CCL-75). The ATCC cell line was obtained via the Holding Company for Biological Products and Vaccines (VACSERA), Cairo, Egypt.
(§5) The MTT test was utilized to ascertain the phosphonate's inhibitory effects on cell growth utilizing the aforementioned cell lines. The basis of this colorimetric assay is the transformation of yellow tetrazolium bromide (MTT) by mitochondrial succinate dehydrogenase in living cells into a purple formazan derivative. 10% fetal bovine serum was added to RPMI-1640 media used to cultivate cell lines. At 37 °C in an incubator with 5% CO2, 100 units/mL of penicillin and 100 µg/mLof streptomycin were introduced as antibiotics. The cell lines were seeded at 1.0 × 10^4 cells/well in a 96-well plate and kept at 37 °C for 24 h with 5% CO2. Following incubation, the cells were subjected to several concentrations of newly synthesized phosphonates and left for 48 h incubation. 20 µL of a 5 mg/mL MTT solution was added and incubated for 4 h after the drug treatment lasted for 48 h. To dissolve the purple formazan produced in each well, 100 µL of dimethyl sulfoxide (DMSO) was applied. Using a plate reader (EXL 800, USA), the colorimetric test is measured and recorded at the absorbance of 570 nm. (A570 of treated samples/A570 of untreated sample) X 100 was used to compute the relative cell viability as a percentage.

[3] = system: hepatocellular carcinoma (HepG-2); test: MTT assay, HepG-2; assay type: cell-based, human; conditions: for antitumor impact on HepG-2: compared with DOX
Excerpt: as §4, §5

[4] = system: human lung fibroblast (WI-38); test: MTT assay, WI-38 normal cells; assay type: cell-based; conditions: 48 h
Excerpt: as §4, §5

Mammary gland (MCF-7) = test: MTT assay, MCF-7; assay type: cell-based, human; conditions: for IC50: Homo sapiens, MCF7, 48 h, read-out: Anti-cancer activity MCF-7 (IC50), MTT, 48 h; for antitumor impact on MCF-7: MTT, 48 h, compared with DOX
Excerpt: as §4, §5

Aspergillus flavus = test: Disc diffusion, A. flavus; assay type: cell-based; conditions: inhibition zone vs standard drug, 1 mg/mL, 24 h, 36 °C
Procedure: as §3

Candida albicans = test: Disc diffusion, C. albicans; assay type: cell-based; conditions: inhibition zone vs standard drug, 1 mg/mL, 24 h, 36 °C
Procedure: as §3

Pseudomonas aeruginosa = test: Disc diffusion, P. aeruginosa; assay type: cell-based; conditions: inhibition zone vs standard drug, 1 mg/mL, 24 h, 36 °C
Procedure: as §3

Staphylococcus aureus = test: Disc diffusion, S. aureus; assay type: cell-based; conditions: inhibition zone vs standard drug, 1 mg/mL, 24 h, 36 °C
Procedure: as §3

Escherichia coli = test: Disc diffusion, E. coli; assay type: cell-based; conditions: inhibition zone vs standard drug, 1 mg/mL, 24 h, 36 °C
Procedure: as §3

Bacillus subtilis = test: Disc diffusion, B. subtilis; assay type: cell-based; conditions: inhibition zone vs standard drug, 1 mg/mL, 24 h, 36 °C
Procedure: as §3

[5] = Homo sapiens, HepG2, 48 h, read-out: Anti-cancer activity HepG-2 (IC50), MTT, 48 h

Compound | ABTS scavenging (ABTS radical scavenging) | biocidal effect against bacterial and fungal strains [1] | DPPH scavenging (DPPH radical scavenging) | melting point [°C] | IC50 [2] [nM] | antitumor impact on Caco-2 [2] | IC50 [3, 5] [µM] | cytotoxic effect on WI-38 normal cells [4] | IC50 (Mammary gland (MCF-7)) [nM] | antitumor impact on MCF-7 (Mammary gland (MCF-7)) | antitumor impact on HepG-2 ([3]; MTT, 48 h) | other results
CCOP(=O)(OCC)C(Nc1ncc(Cl)cc1Cl)c1ccc(O)c(OC)c1 (stereo not drawn) [Compound 3a, Diethyl(((3,5-dichloropyridin-2-yl)amino)(4-hydroxy-3-methoxyphenyl)methyl)phosphonate] | moderate impact | moderate | moderate impact | 66 to 68 | 3300 | low effect | 17.9 ± 1.3 | without any toxic effects |  |  |  | 
CCOP(=O)(OCC)C(Nc1ncc(Cl)cc1Cl)c1ccccc1OC (stereo not drawn) [Compound 3c, Diethyl (((3,5-dichloropyridin-2-yl)amino)(2-methoxyphenyl)methyl)phosphonate] | weak capacity | moderate | weak capacity | 73 to 75 | 2300 | moderate to weak impact |  |  | 2100 | moderate to weak impact | moderate to weak impact | 
COc1cccc2c1C(=O)c1c(O)c3c(c(O)c1C2=O)C[C@@](O)(C(=O)CO)C[C@@H]3O[C@H]1C[C@H](N)[C@H](O)[C@H](C)O1 [DOX, reference compound] |  |  |  |  |  |  |  | highly toxic effects |  |  |  | IC50 ([3]; MTT, 48 h, read-out: Anti-cancer activity HepG-2 (IC50)): 6.72 ± 0.5 µM; IC50 [4]: 6.72 ± 0.5 µM
CCOP(=O)(OCC)C(Nc1ncc(Cl)cc1Cl)c1ccsc1 (stereo not drawn) [Compound 3f, Diethyl (((3,5-dichloropyridin-2-yl)amino)(thiophen-3-yl)methyl)phosphonate] | moderate impact | moderate | moderate impact | 88 to 90 | 1700 | low effect |  | without any toxic effects |  |  |  | 
CCOP(=O)(OCC)C(Nc1ncc(Cl)cc1Cl)c1c(O)ccc2ccccc12 (stereo not drawn) [Compound 3d, Diethyl (((3,5-dichloropyridin-2-yl)amino)(2-hydroxynaphthalen-1-yl)methyl)phosphonate] |  |  |  | 145 to 147 |  |  |  | no cytotoxic effects; also recorded: without any toxic effects |  |  |  | activity index A. flavus (Aspergillus flavus): 72%; activity index C. albicans (Candida albicans): 81.5%; activity index P. aeruginosa (Pseudomonas aeruginosa): 60.9%; activity index S. aureus (Staphylococcus aureus): 62.5%; IC50 (ABTS radical scavenging): 29.14 ± 0.18 µM; IC50 (DPPH radical scavenging): 20.04 ± 0.14 µM; activity index E. coli (Escherichia coli): 42.3%; activity index B. subtilis (Bacillus subtilis): 52.2%
CCOP(=O)(OCC)C(Nc1ncc(Cl)cc1Cl)c1ccccc1O (stereo not drawn) [Compound 3g, Diethyl (((3,5-dichloropyridin-2-yl)amino)(2-hydroxyphenyl)methyl)phosphonate] | weak capacity | weak | weak capacity | 100 to 102 | 3000 | moderate to weak impact | 2.4 |  | 2600 | moderate to weak impact | moderate to weak impact | 
O=C1O[C@H]([C@@H](O)CO)C(O)=C1O [L-Ascorbic acid, reference compound] |  |  |  |  |  |  |  |  |  |  |  | IC50 (ABTS radical scavenging): 29.47 ± 0.17 µM; IC50 (DPPH radical scavenging): 16.81 ± 0.1 µM
CCOP(=O)(OCC)C(Nc1ncc(Cl)cc1Cl)c1ccc(O)cc1 (stereo not drawn) [Compound 3b, Diethyl (((3,5-dichloropyridin-2-yl)amino)(4-hydroxyphenyl)methyl)phosphonate] | weak capacity | weak | weak capacity | 56 to 58 |  |  | 66.8 ± 3.5 |  |  |  |  | 
CCOP(=O)(OCC)C(Nc1ncc(Cl)cc1Cl)c1ccc(N(C)C)cc1 (stereo not drawn) [Compound 3e, Diethyl (((3,5-dichloropyridin-2-yl)amino)(4-(dimethylamino)phenyl)methyl)phosphonate] | weak capacity | weak | weak capacity | 70 to 72 |  | moderate to weak impact | 3.1 |  | 3400 | moderate to weak impact | moderate to weak impact | 
